Experimental data published in patent US20170173008A1, “ANTIMICROBIAL AGENTS AND SCREENING METHODS” (PRESIDENT AND FELLOWS OF HARVARD COLLEGE, priority 2014, published 2017).
≈ marks a conversion by molar mass, not a printed value. Entries after “also recorded” stand apart in the source; their conditions may differ. Where two headings read alike, the source gives them in different places.

What was measured:
[1] = target: T1, VKOR of M. tuberculosis (Mycobacterium tuberculosis, UniProt I6X5W1); type: cell-based; settings: agar assay
T1 sequence (I6X5W1 1-210): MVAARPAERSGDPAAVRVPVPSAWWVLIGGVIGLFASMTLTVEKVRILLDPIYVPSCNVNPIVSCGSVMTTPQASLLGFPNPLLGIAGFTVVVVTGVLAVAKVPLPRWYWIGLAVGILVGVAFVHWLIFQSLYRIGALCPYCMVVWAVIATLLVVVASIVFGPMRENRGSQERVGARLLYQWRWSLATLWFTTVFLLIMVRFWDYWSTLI

[2] = target: E. coli DsbB (Escherichia coli, UniProt P0A6M2); assay: Blue/white beta-galactosidase agar assay, DsbB-based E. coli strain; type: cell-based; settings: for MIC for blue color appearance / minimal inhibitory concentration of DsbB: β-galactosidase agar media assay
[3] = target: T2, purified EcDsbB (Escherichia coli, UniProt P0A6M2, C49V/C8A); assay: In vitro assay of purified DsbB (ubiquinone reduction); type: biochemical, E. coli
T2 construct: made in house; host or cells: E. coli
Description: In addition to the in vivo assays of MICs, we have purified DsbB from E. coli and assessed the concentration dependence for inhibition of the enzyme's activity in oxidizing DsbA.
In this assay, we determine the concentration of a compound necessary to reduce the activity of purified DsbB enzyme by 50%. DsbB uses ubiquinone as a co-factor for the generation of disulfide bonds. DsbB oxidizes DsbA and reduces ubiquinone. When it is in the oxidized state, ubiquinone absorbs strongly at 275 nm but it has a diminished absorbance when it is in the reduced state at the same wavelength. Therefore, DsbB activity can be measured by the reduction of ubiquinone and this is assessed by following the decrease of absorbance of ubiquinone at 275 nm. The assay uses 20 μM purified and DTT-reduced DsbA, 20 uM UbQ-5, and 2 nM purified DsbB at pH6.0.
We tested several compounds for their inhibitory effect on EcDsbB-mediated ubiquinone reduction using purified enzymes. In this assay, reduced DsbA provides the source of electrons that are used by EcDsbB to reduce ubiquinone-5. The compounds show dose-dependent inhibition of EcDsbB with half-maximal inhibitory concentrations (IC50) in the low-μM range.

[4] = target: T3, DsbB (Escherichia coli, UniProt P0A6M2, C49V/C8A); assay: cell-based; type: cell-based, E. coli; settings: for EC50 RATIO (EC50 compound 16/EC50): E. coli DHB7935, liquid media
T3 construct: expressed in transfected cells; host or cells: E. coli DHB7935 (HK295 ΔdsbB λatt::malF-lacZ102, φ80::pDSW206dsbBhis6-c-myc)

[5] = system: DsbBs from other gram-negative pathogens; type: cell-based; settings: agar assay, 384-well plates
[6] = target: T4, DsbB-DsbAC33A dimer (Escherichia coli, UniProt P0A6M2, C49V/C8A); assay: Mass spectrometry of DsbB-DsbAC33A complex treated with compound; type: binding, E. coli
T4 construct: made in house
Procedure: Since the theoretical molecular weight of compound 16.6 is 289.54 Da, the 35.9-Da mass loss may represent a leaving chloride ion. This mass adduct was not observed when either DsbB (oxidized), DsbA (reduced) or DsbAC33A, alone was treated with the compound (FIG. 7C).

[7] = target: DsbB (Escherichia coli, UniProt P0A6M2); assay: Oxidation of DsbA by DsbB in growing E. coli (in vivo alkylation assay); settings: liquid minimal medium
Procedure: Second, we measured MICs of the strongest inhibitors in terms of their effects on the oxidation of DsbA by DsbB and on the inhibition of disulfide bond formation in growing liquid cultures. […] The oxidation of DsbA was assessed by a standard alkylation assay for free cysteines in DsbA.
The in vivo chemical alkylation procedure was done as described previously (Chng S et al. Science 337, 1665-1668 (2012)). […] A 500 μl culture aliquot was then transferred to a 1.5 ml tube and precipitated with 50 μl of trichloroacetic acid (TCA, 100%, Mallinckrodt Baker). The mixture was incubated on ice for 10 min and precipitated proteins were pelleted at 18 000 g for 10 min. The protein pellet was washed with 600 μl ice-cold acetone and incubated on ice for 10 min. The protein was re-pelleted by centrifugation at 18 000 g for 3 min and left to air-dry at room temperature. The TCA-precipitated proteins were either directly subjected to alkylation or first reduced before alkylation. For reduction, proteins were incubated in 100 μl 100 mM Tris HCl, pH 8.0 containing 0.1% SDS and 100 mM dithiothreitol (DTT, Invitrogen) for 30 min at room temperature. M63 (500 μl) medium was added and the reduced proteins were re-precipitated with TCA and further washed with acetone. […]

[8] = system: RcsF, a substrate of DsbA; assay: Disulfide bond formation in RcsF in growing E. coli liquid culture; type: cell-based; settings: liquid minimal medium

T3 sequence (P0A6M2 whole entry C8A/C49V): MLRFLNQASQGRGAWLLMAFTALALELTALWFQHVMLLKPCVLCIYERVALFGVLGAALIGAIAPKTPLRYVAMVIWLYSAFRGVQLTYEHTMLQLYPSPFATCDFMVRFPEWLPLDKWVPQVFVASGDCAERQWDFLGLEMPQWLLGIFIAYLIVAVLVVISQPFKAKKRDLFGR
T2 sequence (P0A6M2 whole entry C8A/C49V): as above
Chain of E. coli DsbB (P0A6M2 whole entry): as the sequence (P0A6M2 whole entry C8A/C49V) above, with A8C, V49C counted along it
T4 sequence (P0A6M2 whole entry C8A/C49V): as the sequence (P0A6M2 whole entry C8A/C49V) above
Chain of DsbB (Escherichia coli, UniProt P0A6M2) (P0A6M2 whole entry): as the sequence (P0A6M2 whole entry C8A/C49V) above, with A8C, V49C counted along it

| Structure (SMILES) | concentration up to which no inhibition of VKOR was observed [1] | difference between inhibition of DsbB and of VKOR ([2]; MIC DsbB versus highest concentration without VKOR inhibition) | MIC for blue color appearance / minimal inhibitory concentration of DsbB [2] | IC50 ([3]; in vitro assay, read-out: IC50) | EC50 [4] | fold more inhibitory than compound 16 [4] | EC50 RATIO (EC50 compound 16/EC50) [4] | inhibition of DsbBs of other gram-negative bacteria expressed in E. coli, in words [5] | adduct on Cys44 of DsbB ([6]; high-resolution tandem mass spectrometry, chymotrypsin digest) | adduct with the DsbB-DsbAC33A dimer ([6]; ion-trap mass spectrometry) | MIC, oxidation of DsbA by DsbB [7] | MIC, disulfide bond formation in RcsF [8] | IC50 ([3]; IC50 (μM), Table 9) | IC50 ([3]; IC50, purified DsbB) |
| --- | --- | --- | --- | --- | --- | --- | --- | --- | --- | --- | --- | --- | --- | --- |
| O=c1c(Cl)c(Cl)cnn1Cc1ccccc1Cl [Compound 16.6] | > 50 µM | equal to or greater than two orders of magnitude | 0.53 µM | 0.0189 µM | 160 nM | 23 fold | 23.03 | most effective inhibitor; also recorded: one of the most effective inhibitors | 252.995 Da | 253.6 Da | 0.7 µM |  |  |  |
| O=c1c(Cl)c(Cl)cnn1Cc1ccccc1 [Compound 16] |  |  | 5.7 µM |  | 5100 nM |  | 1.00 |  |  |  | 5 µM | 100 µM (≈ 25.5 µg/mL) | 1.86 µM | 1.85 µM |
